According to PubChem BioAssay AID1963961 (Molecular Pharmacology Branch, DTP, NCI, 2024):
Each block holds one compound with its values, some of them ahead of it.

Test system: K98450-129-R-PDC multicell spheroids, viability
Experiment: Anticancer human tumor K98450-129-R-PDC patient-derived colon adenocarcinoma cell line growth inhibition [PI3K]
Details: for viability, T/C: stronger effect = lower value
Summary of the method: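 Combination activity was assessed by viability in multicellular tumor spheroids carrying HUVEC and MSC components. Agents were tested with PI3K inhibitors from a Cmax-based top dose (or 10 microM) downward in half-log increments.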

[1] = curve of first compound, second compound 0.0316 µM
[2] = curve of first compound, second compound 0.1 µM
[3] = curve of first compound, second compound 0.316 µM
[4] = curve of first compound, second compound 1 µM
[5] = curve of first compound, second compound 3.16 µM
[6] = curve of first compound, second compound 10 µM
[7] = second compound 0.0316 µM, first compound 0.0316 µM
[8] = second compound 0.0316 µM, first compound 0.1 µM
[9] = second compound 0.0316 µM, first compound 0.316 µM
[10] = second compound 0.0316 µM, first compound 1 µM
[11] = second compound 0.0316 µM, first compound 3.16 µM
[12] = second compound 0.0316 µM, first compound 10 µM
[13] = second compound 0.1 µM, first compound 0.0316 µM
[14] = second compound 0.1 µM, first compound 0.1 µM
[15] = second compound 0.1 µM, first compound 0.316 µM
[16] = second compound 0.1 µM, first compound 1 µM
[17] = second compound 0.1 µM, first compound 3.16 µM
[18] = second compound 0.1 µM, first compound 10 µM
[19] = second compound 0.316 µM, first compound 0.0316 µM
[20] = second compound 0.316 µM, first compound 0.1 µM
[21] = second compound 0.316 µM, first compound 0.316 µM
[22] = second compound 0.316 µM, first compound 1 µM
[23] = second compound 0.316 µM, first compound 3.16 µM
[24] = second compound 0.316 µM, first compound 10 µM
[25] = second compound 1 µM, first compound 0.0316 µM
[26] = second compound 1 µM, first compound 0.1 µM
[27] = second compound 1 µM, first compound 0.316 µM
[28] = second compound 1 µM, first compound 1 µM
[29] = second compound 1 µM, first compound 3.16 µM
[30] = second compound 1 µM, first compound 10 µM
[31] = second compound 3.16 µM, first compound 0.0316 µM
[32] = second compound 3.16 µM, first compound 0.1 µM
[33] = second compound 3.16 µM, first compound 0.316 µM
[34] = second compound 3.16 µM, first compound 1 µM
[35] = second compound 3.16 µM, first compound 3.16 µM
[36] = second compound 3.16 µM, first compound 10 µM
[37] = second compound 10 µM, first compound 0.0316 µM
[38] = second compound 10 µM, first compound 0.1 µM
[39] = second compound 10 µM, first compound 0.316 µM
[40] = second compound 10 µM, first compound 1 µM
[41] = second compound 10 µM, first compound 3.16 µM
[42] = second compound 10 µM, first compound 10 µM
[43] = curve of first compound, second compound 0.00316 µM
[44] = curve of first compound, second compound 0.01 µM
[45] = second compound 0.00316 µM, first compound 0.0316 µM
[46] = second compound 0.00316 µM, first compound 0.1 µM
[47] = second compound 0.00316 µM, first compound 0.316 µM
[48] = second compound 0.00316 µM, first compound 1 µM
[49] = second compound 0.00316 µM, first compound 3.16 µM
[50] = second compound 0.00316 µM, first compound 10 µM
[51] = second compound 0.01 µM, first compound 0.0316 µM
[52] = second compound 0.01 µM, first compound 0.1 µM
[53] = second compound 0.01 µM, first compound 0.316 µM
[54] = second compound 0.01 µM, first compound 1 µM
[55] = second compound 0.01 µM, first compound 3.16 µM
[56] = second compound 0.01 µM, first compound 10 µM
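Note: spheroids exposed to agents for seven days before read-out.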

IC50 [1]: > 10 µM
IC50 [2]: > 10 µM
IC50 [3]: > 10 µM
IC50 [4]: > 10 µM
IC50 [5]: > 10 µM
IC50 [6]: > 10 µM
Compound: C[C@@H](NC(=O)c1ncnc(N)c1Cl)c1ncc(C(=O)Nc2cc(C(F)(F)F)c(Cl)cn2)s1 + CC(Nc1ncnc2nc[nH]c12)c1cc2cccc(Cl)c2c(=O)n1-c1ccccc1
viability, T/C [7]: 113%
viability, T/C [8]: 108%
viability, T/C [9]: 117%
viability, T/C [10]: 124%
viability, T/C [11]: 109%
viability, T/C [12]: 104%
viability, T/C [13]: 123%
viability, T/C [14]: 106%
viability, T/C [15]: 119%
viability, T/C [16]: 108%
viability, T/C [17]: 123%
viability, T/C [18]: 96%
viability, T/C [19]: 107%
viability, T/C [20]: 118%
viability, T/C [21]: 103%
viability, T/C [22]: 108%
viability, T/C [23]: 126%
viability, T/C [24]: 96.1%
viability, T/C [25]: 115%
viability, T/C [26]: 106%
viability, T/C [27]: 102%
viability, T/C [28]: 106%
viability, T/C [29]: 126%
viability, T/C [30]: 86.8%
viability, T/C [31]: 92.3%
viability, T/C [32]: 112%
viability, T/C [33]: 95.8%
viability, T/C [34]: 120%
viability, T/C [35]: 123%
viability, T/C [36]: 101%
viability, T/C [37]: 95.5%
viability, T/C [38]: 106%
viability, T/C [39]: 90.9%
viability, T/C [40]: 103%
viability, T/C [41]: 124%
viability, T/C [42]: 78%

IC50 [43]: > 10 µM
IC50 [44]: > 10 µM
IC50 [1]: > 10 µM
IC50 [2]: > 10 µM
IC50 [3]: > 10 µM
IC50 [4]: > 10 µM
Compound: C[C@@H](NC(=O)c1ncnc(N)c1Cl)c1ncc(C(=O)Nc2cc(C(F)(F)F)c(Cl)cn2)s1 + CC(Nc1ccc2c(c1)OCCn1cc(N3C(=O)OCC3C(F)F)nc1-2)C(N)=O
viability, T/C [45]: 111%
viability, T/C [46]: 109%
viability, T/C [47]: 118%
viability, T/C [48]: 114%
viability, T/C [49]: 118%
viability, T/C [50]: 111%
viability, T/C [51]: 115%
viability, T/C [52]: 108%
viability, T/C [53]: 116%
viability, T/C [54]: 115%
viability, T/C [55]: 118%
viability, T/C [56]: 116%
viability, T/C [7]: 105%
viability, T/C [8]: 102%
viability, T/C [9]: 108%
viability, T/C [10]: 121%
viability, T/C [11]: 122%
viability, T/C [12]: 104%
viability, T/C [13]: 96.7%
viability, T/C [14]: 105%
viability, T/C [15]: 107%
viability, T/C [16]: 110%
viability, T/C [17]: 125%
viability, T/C [18]: 107%
viability, T/C [19]: 97%
viability, T/C [20]: 109%
viability, T/C [21]: 113%
viability, T/C [22]: 111%
viability, T/C [23]: 120%
viability, T/C [24]: 101%
viability, T/C [25]: 86%
viability, T/C [26]: 94.4%
viability, T/C [27]: 102%
viability, T/C [28]: 104%
viability, T/C [29]: 115%
viability, T/C [30]: 90.7%

The next lines start with the compound.

Compound: CCCS(=O)(=O)Nc1ccc(F)c(C(=O)c2c[nH]c3ncc(-c4ccc(Cl)cc4)cc23)c1F + CC(Nc1ncnc2nc[nH]c12)c1cc2cccc(Cl)c2c(=O)n1-c1ccccc1
IC50 [1]: 5.17 µM
IC50 [2]: 6.03 µM
IC50 [3]: 5.29 µM
IC50 [4]: 5.51 µM
IC50 [5]: 5.87 µM
IC50 [6]: 5.53 µM
viability, T/C [7]: 118%
viability, T/C [8]: 97.9%
viability, T/C [9]: 106%
viability, T/C [10]: 113%
viability, T/C [11]: 85.5%
viability, T/C [12]: 2.37%
viability, T/C [13]: 127%
viability, T/C [14]: 94.6%
viability, T/C [15]: 121%
viability, T/C [16]: 112%
viability, T/C [17]: 109%
viability, T/C [18]: 3.82%
viability, T/C [19]: 96.8%
viability, T/C [20]: 97.2%
viability, T/C [21]: 101%
viability, T/C [22]: 111%
viability, T/C [23]: 89%
viability, T/C [24]: 1.77%
viability, T/C [25]: 97%
viability, T/C [26]: 104%
viability, T/C [27]: 101%
viability, T/C [28]: 120%
viability, T/C [29]: 93.7%
viability, T/C [30]: 2.88%
viability, T/C [31]: 97.1%
viability, T/C [32]: 102%
viability, T/C [33]: 95.3%
viability, T/C [34]: 112%
viability, T/C [35]: 114%
viability, T/C [36]: 3.24%
viability, T/C [37]: 96.2%
viability, T/C [38]: 102%
viability, T/C [39]: 105%
viability, T/C [40]: 102%
viability, T/C [41]: 94.2%
viability, T/C [42]: 3.07%

Compound: C#Cc1c(F)ccc2cc(O)cc(-c3ncc4c(N5CC6CCC(C5)N6)nc(OCC56CCCN5CC(F)C6)nc4c3F)c12 (configuration not stated) + CC(Nc1ccc2c(c1)OCCn1cc(N3C(=O)OCC3C(F)F)nc1-2)C(N)=O
IC50 [43]: > 10 µM
IC50 [44]: > 10 µM
IC50 [1]: > 10 µM
IC50 [2]: > 10 µM
IC50 [3]: > 10 µM
IC50 [4]: > 10 µM
viability, T/C [45]: 116%
viability, T/C [46]: 101%
viability, T/C [47]: 104%
viability, T/C [48]: 96.2%
viability, T/C [49]: 101%
viability, T/C [50]: 92.7%
viability, T/C [51]: 113%
viability, T/C [52]: 92.1%
viability, T/C [53]: 109%
viability, T/C [54]: 95.2%
viability, T/C [55]: 91.9%
viability, T/C [56]: 91.3%
viability, T/C [7]: 104%
viability, T/C [8]: 100%
viability, T/C [9]: 103%
viability, T/C [10]: 91.2%
viability, T/C [11]: 98.5%
viability, T/C [12]: 87.7%
viability, T/C [13]: 101%
viability, T/C [14]: 106%
viability, T/C [15]: 97%
viability, T/C [16]: 99.9%
viability, T/C [17]: 97.5%
viability, T/C [18]: 91.5%
viability, T/C [19]: 88.6%
viability, T/C [20]: 93%
viability, T/C [21]: 99.4%
viability, T/C [22]: 89.1%
viability, T/C [23]: 99.1%
viability, T/C [24]: 77.8%
viability, T/C [25]: 86%
viability, T/C [26]: 92.3%
viability, T/C [27]: 92.6%
viability, T/C [28]: 86.4%
viability, T/C [29]: 88.6%
viability, T/C [30]: 72.8%

Compound: CC(C)NCC(C(=O)N1CCN(c2ncnc3c2C(C)CC3O)CC1)c1ccc(Cl)cc1 (configuration not stated) + CC(Nc1ccc2c(c1)OCCn1cc(N3C(=O)OCC3C(F)F)nc1-2)C(N)=O
IC50 [43]: > 10 µM
IC50 [44]: > 10 µM
IC50 [1]: > 10 µM
IC50 [2]: > 10 µM
IC50 [3]: > 10 µM
IC50 [4]: > 10 µM
viability, T/C [45]: 111%
viability, T/C [46]: 98%
viability, T/C [47]: 101%
viability, T/C [48]: 101%
viability, T/C [49]: 109%
viability, T/C [50]: 98.4%
viability, T/C [51]: 115%
viability, T/C [52]: 96.1%
viability, T/C [53]: 105%
viability, T/C [54]: 98.1%
viability, T/C [55]: 104%
viability, T/C [56]: 102%
viability, T/C [7]: 109%
viability, T/C [8]: 104%
viability, T/C [9]: 98.9%
viability, T/C [10]: 101%
viability, T/C [11]: 109%
viability, T/C [12]: 96.9%
viability, T/C [13]: 96.2%
viability, T/C [14]: 91.7%
viability, T/C [15]: 101%
viability, T/C [16]: 102%
viability, T/C [17]: 101%
viability, T/C [18]: 96.2%
viability, T/C [19]: 91%
viability, T/C [20]: 90.5%
viability, T/C [21]: 100%
viability, T/C [22]: 99.2%
viability, T/C [23]: 111%
viability, T/C [24]: 94.2%
viability, T/C [25]: 85.2%
viability, T/C [26]: 85.4%
viability, T/C [27]: 96.8%
viability, T/C [28]: 94.1%
viability, T/C [29]: 100%
viability, T/C [30]: 95.2%

Compound: C[C@@H](NC(=O)c1ncnc(N)c1Cl)c1ncc(C(=O)Nc2cc(C(F)(F)F)c(Cl)cn2)s1
viability, T/C (compound 0.0316 µM): 108% [middle of 4 runs]
viability, T/C (compound 0.1 µM): 110% [middle of 4 runs]
viability, T/C (compound 0.316 µM): 119% [middle of 4 runs]
viability, T/C (compound 1 µM): 122% [middle of 4 runs]
viability, T/C (compound 3.16 µM): 120% [middle of 4 runs]
viability, T/C (compound 10 µM): 109% [middle of 4 runs]
IC50 (curve of compound): > 10 µM
